Test results published in patent US20160016951A1 (Merck Patent GmbH, priority 2014, published 2016).
pIC50: −log10 of the molar value.

Molecular target: T1, CDK8 (CDK8/CycC) (Homo sapiens, UniProt P49336)
T1 construct: purchased Invitrogen PV4402
Assay: FRET based Lanthascreen binding competition assay
Conditions: 5 nM CDK8/CycC, 10 nM Alexa647-Tracer, 1% DMSO, 60 min at RT; read-out: IC50 CDK8 binding
Outline: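 CDK8 co-expressed with CycC and labelled through biotinylated anti-His antibody and streptavidin-Eu was preincubated with compound for 20 min at RT. An Alexa647 ATP-competitive probe was then added for 60 min at RT in the dark. Probe displacement was read as loss of TR-FRET (excitation 340 nm, emission 650 nm).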

T1 sequence (P49336 whole entry): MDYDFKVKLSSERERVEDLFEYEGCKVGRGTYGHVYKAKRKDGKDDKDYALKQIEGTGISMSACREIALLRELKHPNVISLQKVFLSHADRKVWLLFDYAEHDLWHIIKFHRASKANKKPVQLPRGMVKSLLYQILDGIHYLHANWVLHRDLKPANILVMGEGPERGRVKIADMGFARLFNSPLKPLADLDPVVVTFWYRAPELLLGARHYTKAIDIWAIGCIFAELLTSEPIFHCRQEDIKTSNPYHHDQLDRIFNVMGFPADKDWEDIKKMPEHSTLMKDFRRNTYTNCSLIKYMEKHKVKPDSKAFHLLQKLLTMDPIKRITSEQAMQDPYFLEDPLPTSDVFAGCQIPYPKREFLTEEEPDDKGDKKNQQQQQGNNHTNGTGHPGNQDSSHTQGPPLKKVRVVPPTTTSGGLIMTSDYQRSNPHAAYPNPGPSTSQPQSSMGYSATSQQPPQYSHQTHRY
T1 sequence (P24863 whole entry partner): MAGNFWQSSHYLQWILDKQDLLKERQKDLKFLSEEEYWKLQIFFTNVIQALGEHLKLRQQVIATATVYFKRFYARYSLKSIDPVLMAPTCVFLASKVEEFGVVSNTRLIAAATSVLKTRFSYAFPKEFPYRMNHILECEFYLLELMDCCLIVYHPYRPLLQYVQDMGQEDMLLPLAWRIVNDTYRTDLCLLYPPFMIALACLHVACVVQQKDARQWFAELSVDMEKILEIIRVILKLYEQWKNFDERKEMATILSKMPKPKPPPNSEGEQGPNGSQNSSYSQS

Row | Structure (SMILES) | pIC50
1 | O=C(c1ccc2cnccc2c1)N1CCC[C@H]1c1ccccc1 [Compound 122, (S)-isoquinolin-6-yl(2-phenylpyrrolidin-1-yl)methanone] | 7.00 to 8.00
2 | Cn1cc(-c2ccc(-c3cncc4ccc(S)nc34)cc2)cn1 [Compound 77, 8-(4-(1-methyl-1H-pyrazol-4-yl)phenyl)-1,6-naphthyridine-2-thiol] | 7.00 to 8.00
3 | Cn1cc(-c2ccc(-c3cncc4ccccc34)cc2)cn1 [Compound 109, 4-(4-(1-methyl-1H-pyrazol-4-yl)phenyl)isoquinoline] | 7.00 to 8.00
4 | Cn1cc(-c2ccc(-c3cnc(N)c4ccc(C(=O)N5CCC(F)(F)C5)cc34)cc2)cn1 [Compound 196, (1-amino-4-(4-(1-methyl-1H-pyrazol-4-yl)phenyl)isoquinolin-6-yl)(3,3-difluoropyrrolidin-1-yl)methanone] | 7.00 to 8.00

Second part, the compound after the results:

Row | pIC50 | Structure (SMILES)
5 | 7.00 to 8.00 | CC(C)(O)Cn1cc(-c2ccc(-c3cncc4ccc(C(=O)N5CCCC5)cc34)cc2)cn1 [Compound 134]
6 | 7.00 to 8.00 | CN1c2ccc(-c3cncc4ccc(CO)nc34)cc2CS1(=O)=O [Compound 51, [8-(1-Methyl-2,2-dioxo-2,3-dihydro-1H-benzo[c]isothiazol-5-yl)-[1,6]naphthyridin-2-yl]-methanol]
7 | 6.30 to 7.00 | COC1CN(C(=O)c2ccc3c(N)ncc(-c4ccc5c(c4)CCC(=O)N5C)c3c2)C1 [Compound 178, 6-(1-amino-6-(3-methoxyazetidine-1-carbonyl)isoquinolin-4-yl)-1-methyl-3,4-dihydroquinolin-2(1H)-one]
